Values of other authors in patent US12599677B2, “Targeted PH sensitive liposomes” (Northwestern University, priority 2020, dated 2026).

For `C=C1CC[C@@H]2[C@](C)(CO)[C@H](O)CC[C@@]2(C)[C@@H]1C/C=C1/C(=O)OC[C@H]1O` [andrographolide], the solubility in water is listed as “low solubility in water”.
